Holding throughout (test): inhibition of tumour cell growth, NCI panel, 48 h
Experiment [1] concerns NCI/ADR-RES.
The subject of experiment [2] is MDA-MB-435.
For experiment [3], the system named is HCT-15.
Experiment [4] has as its system HCT-116.
Experiment [5] concerns SF-268.
Experiment [6] relates to PC-3.
Experiment [7] concerns SNB-19.
Experiment [8] deals with MOLT-4.
Experiment [9] relates to K562.
Experiment [10] has as its system BT-549.
Experiment [11] concerns RXF 393.
The test system of experiment [12] is OVCAR-4.
Experiment [13] relates to NCI-H226.
Experiment [14] concerns SK-MEL-28.
The subject of experiment [15] is COLO 205.
Experiment [16] has as its system M14.
Experiment [17] concerns SNB-75.
The test system of experiment [18] is LOX IMVI.
Experiment [19] has as its system NCI-H460.
Experiment [20] concerns HCC 2998.

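In this assay, cells in 96-well plates receive the compound at five concentrations for 48 hours. Endpoints are linearly interpolated between the surrounding concentrations. Here, GI50 denotes the concentration required for 50% inhibition of growth.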 Active and inactive are the calls of the source. Cut-off read from the data, not from the text of the source: active = GI50 up to about 1.1 µM and inactive = higher.

On to `O=S1(=O)c2ccccc2NC(=S)CC1c1ccccc1` (stereo not given), for which the GI50 in [1] is > 100 µM (inactive); in experiment [2], > 100 µM (inactive); in experiment [3], over 100 µM; in [4] it was > 100 µM (inactive); in experiment [5], > 100 µM (inactive); in experiment [6] it was > 100 µM (inactive). Besides, the GI50 in [7], in experiment [8], in [9], in experiment [10], in [11] and in experiment [12] was > 100 µM (inactive) throughout. The GI50 in experiment [13] was > 100 µM (inactive); in experiment [14], > 100 µM (inactive); in experiment [15], 36.6 µM (inactive); in experiment [16], > 100 µM (inactive); in experiment [17], > 100 µM (inactive); in experiment [18], > 100 µM (inactive). Further, in [19], the GI50 was > 100 µM (inactive).

For the compound `O=c1oc2ccc([N+](=O)[O-])cc2cc1Br`, the GI50 in experiment [1] is > 100 µM (inactive); in [2] it was > 100 µM (inactive); in [20], > 100 µM (inactive); in experiment [4], > 100 µM (inactive); in [5], 27.4 µM (inactive); in experiment [6], > 100 µM (inactive). Further, the GI50 in [7] was > 100 µM (inactive); in [8], > 100 µM (inactive); in [9], > 100 µM (inactive); in [10], > 100 µM (inactive); in experiment [11], 21.7 µM (inactive); in [12], > 100 µM (inactive). In addition, the GI50 in experiment [13] was > 100 µM (inactive); in [14], > 100 µM (inactive); in [15], > 100 µM (inactive); in experiment [16], 35.7 µM (inactive); in experiment [18], 61.2 µM (inactive); in [19], > 100 µM (inactive).

Turning to `Cc1c(C)c(S(=O)(=O)N(CCCCCON)OCCCN)c(C)c2c1OC(C)(C)CC2`, the GI50 in experiment [1] was 15.9 µM (inactive); in [2] it was 11.8 µM (inactive); in [3], 15.2 µM; in experiment [4], 14.8 µM (inactive); in [5], 16.8 µM (inactive); in [6], 13.2 µM (inactive). Also, the GI50 in experiment [7] is 15.5 µM (inactive); in experiment [8] it was 4.94 µM (inactive); in experiment [9], 3.94 µM (inactive); in experiment [10], 15.5 µM (inactive); in experiment [11], 12.3 µM (inactive); in [12], 7.5 µM (inactive). The GI50 in experiment [13] is 17.9 µM (inactive); in [14], 16.5 µM (inactive); in experiment [15], 3.48 µM (inactive); in [16], 7 µM (inactive); in [17], 14.3 µM (inactive); in experiment [18] it was 9.73 µM (inactive). The GI50 in experiment [19] was 9.93 µM (inactive).

In the case of `CCOC(=O)/C=C1\Nc2ccccc2C12CCc1c([nH]c3ccccc13)C2C(=O)OCC` (stereo not given), the GI50 in experiment [1] was 11.8 µM (inactive); in experiment [2], 6.27 µM (inactive); in [20], 59.3 µM (inactive); in experiment [3], 46.5 µM; in [4], 17.6 µM (inactive); in experiment [5], 30.1 µM (inactive). For the same compound, the GI50 in experiment [6] is > 100 µM (inactive); in experiment [7], > 100 µM (inactive); in experiment [8] it was 8.79 µM (inactive); in experiment [9], 48.4 µM (inactive); in [10], 52.2 µM (inactive); in experiment [11], > 100 µM (inactive). In addition, the GI50 in [12] is 16.3 µM (inactive); in [14] it was 61.2 µM (inactive); in [15], 4.66 µM (inactive); in [16], 25.2 µM (inactive); in experiment [18], 39.2 µM (inactive); in experiment [19], 12 µM (inactive).

As for `O=C1/C(=C/c2cccc([N+](=O)[O-])c2)N=C(c2ccccc2)N1c1ccc2c(c1)Sc1cc(N3C(=O)/C(=C/c4cccc([N+](=O)[O-])c4)N=C3c3ccccc3)ccc1N2`, the GI50 is 34.1 µM (inactive) in experiment [1]; 18.7 µM (inactive) in experiment [2]; > 100 µM (inactive) in experiment [20]; over 100 µM in experiment [3]; 42.8 µM (inactive) in experiment [4]; 20.1 µM (inactive) in [5]. For the same compound, the GI50 in experiment [6] is 22 µM (inactive); in [7] it was 21.2 µM (inactive); in [8], 36.9 µM (inactive); in [9] it was 27.3 µM (inactive); in experiment [10], 23 µM (inactive); in [11] it was 21.6 µM (inactive). Moreover, the GI50 in experiment [12] was 18.7 µM (inactive); in experiment [14], 47.9 µM (inactive); in experiment [15] it was 40.9 µM (inactive); in experiment [16] it was 32.9 µM (inactive); in [17], 16.7 µM (inactive); in experiment [18], 27 µM (inactive). The GI50 in [19] is 41.9 µM (inactive).

Regarding `COc1cc(/C=C/c2ccc(OC)c(OC)c2)cc(OC)c1` [(E)-3,4,3',5'-TETRAMETHOXYSTILBENE], the GI50 in [1] is 20.9 µM (inactive); in experiment [2], 25.7 µM (inactive); in experiment [3] it was 7.08 µM; in experiment [4], 23.1 µM (inactive); in experiment [5] it was 39.5 µM (inactive); in experiment [6] it was 62.7 µM (inactive). Moreover, the GI50 in experiment [7] is 84.9 µM (inactive); in experiment [8], 46.6 µM (inactive); in experiment [9] it was 41.1 µM (inactive); in experiment [10], 23.7 µM (inactive); in experiment [11], 19.6 µM (inactive); in experiment [12] it was 53.2 µM (inactive). The GI50 in experiment [13] was 30.2 µM (inactive); in [14], 36.2 µM (inactive); in experiment [15] it was 19.2 µM (inactive); in experiment [16] it was 28.1 µM (inactive); in [17], 34 µM (inactive); in experiment [18], 19.9 µM (inactive). Also, the GI50 in experiment [19] is 22.2 µM (inactive).

As for `O=C(C(Cl)=C(N1CCOCC1)N1CCOCC1)C(Cl)Cl`, the GI50 in experiment [1] was > 100 µM (inactive); in [2], > 100 µM (inactive); in [20] it was > 100 µM (inactive); in experiment [3], over 100 µM; in [4], > 100 µM (inactive); in [5], > 100 µM (inactive). Moreover, the GI50 in [6], in experiment [7], in experiment [8], in [9], in experiment [10] and in experiment [11] was > 100 µM (inactive) in each case. In addition, the GI50 in [12], in experiment [13], in experiment [14], in experiment [15], in experiment [16] and in experiment [18] was > 100 µM (inactive) each time. In experiment [19], the GI50 is > 100 µM (inactive).

Take `COC(=O)C(Cc1ccccc1)OC(=O)C(N)CC(=O)O` (stereo not given): the GI50 is > 100 µM (inactive) in experiment [1]; 17.1 µM (inactive) in [2]; > 100 µM (inactive) in [20]; over 100 µM in experiment [3]; > 100 µM (inactive) in [4]; > 100 µM (inactive) in experiment [5]. In addition, the GI50 in experiment [6], in [7], in [8], in [9], in experiment [10] and in [11] was > 100 µM (inactive) in each case. The GI50 in experiment [13] was > 100 µM (inactive); in experiment [14], > 100 µM (inactive); in experiment [15] it was > 100 µM (inactive); in experiment [16] it was > 100 µM (inactive); in experiment [17], < 0.01 µM (active); in [19] it was > 100 µM (inactive).

Consider `CN(C(=O)[C@H](NC(=O)OCc1ccccc1)c1ccccc1)C1CCCCC1N1CCCC1` (stereo not given in full), for which the GI50 is > 100 µM (inactive) in [1]; 70.8 µM (inactive) in experiment [2]; over 100 µM in experiment [3]; 69.2 µM (inactive) in [4]; 62.4 µM (inactive) in [5]; 69.7 µM (inactive) in [6]. Besides, the GI50 in experiment [7] is > 100 µM (inactive); in experiment [8], 23.7 µM (inactive); in experiment [9], 29 µM (inactive); in experiment [10] it was > 100 µM (inactive); in experiment [11] it was 87.3 µM (inactive); in experiment [12] it was 51.4 µM (inactive). Also, the GI50 was 0.55 µM (active) in experiment [13]; > 100 µM (inactive) in [14]; 87.9 µM (inactive) in [15]; 23.4 µM (inactive) in experiment [16]; 97.3 µM (inactive) in experiment [17]; 77.6 µM (inactive) in experiment [18]. In addition, the GI50 in [19] was 40.6 µM (inactive).

Take `CSCCCNC(=O)c1csc(-c2csc(CCN)n2)n1`: the GI50 in experiment [1] was > 100 µM (inactive); in [2], > 100 µM (inactive); in experiment [20] it was > 100 µM (inactive); in [3], 54.8 µM; in experiment [4], 84.5 µM (inactive); in experiment [5] it was > 100 µM (inactive). Moreover, the GI50 in [6], in experiment [7], in experiment [8], in [9], in experiment [10] and in experiment [11] was > 100 µM (inactive) in each case. Further, the GI50 in experiment [12] was > 100 µM (inactive); in experiment [14] it was > 100 µM (inactive); in experiment [15], > 100 µM (inactive); in experiment [16], > 100 µM (inactive); in [18] it was 59.7 µM (inactive); in [19], 91 µM (inactive).

Regarding `O=C(O)C1C2CC3C(OC(=O)C31)C2Br` (stereo not given), the GI50 in experiment [1] was > 100 µM (inactive); in experiment [2], > 100 µM (inactive); in experiment [3], over 100 µM; in [4], > 100 µM (inactive); in experiment [5], > 100 µM (inactive); in [6] it was > 100 µM (inactive). Besides, the GI50 is > 100 µM (inactive) in experiment [7]; > 39.5 µM (inactive) in [8]; > 47.8 µM (inactive) in experiment [9]; > 100 µM (inactive) in experiment [10]; > 100 µM (inactive) in [11]; > 100 µM (inactive) in experiment [12]. Moreover, the GI50 in [13], in experiment [14], in [15], in [16], in experiment [17] and in [18] was > 100 µM (inactive) throughout. In addition, the GI50 in experiment [19] is > 100 µM (inactive).

For the origin of these results see ChEMBL document CHEMBL1201862, “PubChem BioAssay data set” (2004).
